Peptide text beside a SMILES is read from it. * marks the point of attachment. Cbz = O=C(OCc1ccccc1)*; CH2F = FC*
How the values were obtained:
[1] = system: EμMyc+p53^ΔPP/wt tumor-bearing animals; format: in vivo, mice; details: 200 μg zVAD-fmk with 10 μg anti-CD95, intravenously once/day for 5 days
Method: EμMyc+p53^ΔPP/wt tumor-bearing animals were injected intravenously once/day for 5 days starting at P35 with 10 μg of the antagonist anti-CD95 Jot antibody and 200 μg of zVAD-fmk or vehicle control. Tumor size was monitored by ultrasound of the thymus, where volume was calculated from 3D reconstructions of the scanned tumors.
In a pilot experiment, mice with detectable tumors at 5 weeks (determined by ultrasound, and characteristic of this lymphoma) were given a short course (5 days) of agonistic anti-CD95 (Jo2) and zVAD-fmk (FIG. 11). […] Controls using zVAD-fmk alone are also included.

[2] = system: NIH-3T3 cells stably expressing DD-RIPK3; experiment: Cell death of DD-RIPK3 cells, IncuCyte bioimager; format: cell-based, murine; details: 1 μM Shield drug
From the text: Chimeric proteins composed of RIPK3 fused to the destabilization domain (DD)(31a) were created via recombinant PCR, to produce a fragment composed of an N-terminal FLAG tag followed by the destabilization domain, then full-length murine RIPK3 or RIPK3^K51A. These constructs were cloned into the pRRL lentiviral vector downstream of an MND promoter, and upstream of a T2A-GFP-T2A-Puromycin resistance cassette. Thus, cells transduced with these vectors produce FLAG-DD-RIPK3, GFP, and the puromycin resistance marker as separate proteins from a single mRNA, and both DD-RIPK3 and GFP carry a C terminal 2A epitope. These constructs were expressed in NIH-3T3 cells via standard helper12 dependent lentiviral transduction, and resulting cells were selected in 2 μg/ml puromycin. […]
Resulting images were analyzed using the software package supplied with the IncuCyte imager, which allows precise analysis of the number of Sytox Green or Yoyo-3 positive cells present in each image. For each experiment, a minimum of three separate wells were treated with each experimental condition, and a minimum of 4 image fields were assessed per well. Percent cell death was calculated by treating a minimum of three distinct wells in each experiment with 100 nM of the cell permeable fluorescent dye Syto Green (S7559), which allows quantification of the total number of cells present in each field. […]

SMILES	protection from the lethal effects of anti-CD95 in vivo [1]	effect of Nec1 on cell death after RIPK1 siRNA-mediated knockdown ([2]; 30 μM Nec1, RIPK1 siRNA)	effect on cell death triggered by RIPK3 accumulation ([2]; no exogenous TNF, TNFR-Fc 200 ng/ml, Nec1 30 μM)
COC(=O)C[C@H](NC(=O)[C@H](C)NC(=O)[C@@H](NC(=O)OCc1ccccc1)C(C)C)C(=O)CF [zVAD] (Cbz-Val-Ala-Asp(OMe)-CH2F)	completely protected	–	–
CN1C(=O)C(Cc2c[nH]c3ccccc23)NC1=S (stereo not drawn) [necrostatin-1, Necrostatin-1]	–	eliminated	decreased cell death

Reference: patent US20160160189A1, “Truncated Constructs of RIPK3 and Related Uses” (ST. JUDE CHILDREN'S RESEARCH HOSPITAL, priority 2013, published 2016)
